Several values for one entry are separate records, joined by “and”; a condition that tells them apart may be missing. Equal values may be shown once.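 96-well plates; 48 h exposure; 5 concentrations. Endpoints by linear interpolation between flanking doses. Not reached: highest tested concentration assigned. Here, GI50 denotes the concentration required for 50% inhibition of growth. TGI marks complete inhibition of growth.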 Activity calls are given as the source filed them. Rule as the data show it: active = GI50 below about 0.43 µM; inactive = the rest.
These compounds were tested on MDA-MB-468 breast (assay: growth of human tumour cells (NCI), 48 h).
Work on `O=C(N/N=C/c1ccc(Cl)cc1)c1ccc(NC(=O)c2ccccn2)cc1` yielded a GI50 of 23.2 µM and a TGI of 95.2 µM.
For `CC1(C)N=C(N)N=C(N)N1c1ccc(OCCCNC(=O)Nc2ccc(S(=O)(=O)F)cc2)c(Cl)c1`, the GI50 was 0.818 µM and the TGI was 29.1 µM.
For `Cn1cc(C2=C(c3ccsc3)C(=O)NC2=O)c2ccccc21`, the GI50 was greater than 22.3 µM and the TGI was greater than 25 µM.
For `N#CCCNc1nonc1-c1nc2ccccc2n1CC(=O)c1ccc(N)cc1`, the GI50 was 0.0168 µM and the TGI was 0.0683 µM.
In the case of `CCCCn1c(=O)[nH]c(N)c([C@@H]2c3c([nH]c(=O)n(CCCC)c3=O)Oc3ccc4ccccc4c32)c1=O`, the GI50 is reported as 13.4 µM and the TGI is reported as 33.4 µM.
`CCOc1ccc(N(C)c2ccc(/C=C/C3=[N+](C)c4ccccc4C3(C)C)cc2)cc1` was tested, and the GI50 was 0.161 µM and the TGI was 1.03 µM.
For `Cn1cc(-c2ccc3nc(-c4ccc(CC(=O)Nc5cc(C(C)(C)C)no5)cc4)cnc3c2)cn1`, the GI50 was 0.0702 µM and the TGI was greater than 3 µM.
Compound `Sc1cccc2cccnc12` has a GI50 of 2.71 µM and a TGI of 15.6 µM.
Work on `COC(=O)c1cc2ccc(O)c(O)c2cn1` yielded a GI50 of 14.1 µM and a TGI of 27.2 µM.
For `COc1cc(/C=C/C(=O)c2cccc(-n3cc(-c4ccccc4)[nH]c3=O)c2)cc(OC)c1OC`, the GI50 was 1.8 µM and the TGI was 3.54 µM.
With `Cc1ccc(NC(=O)c2ccc(CN3CCN(C)CC3)cc2)cc1Nc1nc(-c2cccnc2)cs1` the GI50 was 2.98 µM and 2.62 µM and the TGI was 15.3 µM and > 10 µM.
`C[C@@H]1CN2[C@H]3[C@@H]1CC[C@]31CCC(=O)O[C@]1(C)[C@H]1CC[C@H]3CCC=C3[C@@H]12` gave a GI50 greater than 30 µM and a TGI greater than 30 µM.
In the case of `ClC1=C(Cl)C(Cl)(C2(Cl)C(Cl)=C(Cl)C(Cl)=C2Cl)C(Cl)=C1Cl`, the GI50 is reported as 0.334 µM and the TGI is reported as 1.42 µM.
Work on `COC(=O)N[C@H]1CCc2cc(OC)c(OC)c(OC)c2-c2ccc(SC)c(=O)cc21` yielded a GI50 of less than 0.01 µM and a TGI greater than 100 µM.
`CC(C)=CC[C@@H]1CC2(CC=C(C)C)C(=O)C(OC3(C(=O)c4ccccc4)C(=O)C4(CC=C(C)C)C[C@@H](CC=C(C)C)C(C)(C)C(CC=C(C)C)(C4=O)C3=O)(C(=O)c3ccccc3)C(=O)C(CC=C(C)C)(C2=O)C1(C)C` (some centres undefined) was tested, and the GI50 was 1.23 µM and the TGI was 3.28 µM.
For `CC(Nc1ncnc2ccc(-c3cnc(N)nc3)cc12)c1ccccc1` (centres undefined), the GI50 was 1.17 µM and the TGI was 4.03 µM.
`O=C(NCc1cn(Cc2cccc(Oc3ccccc3)c2)nn1)c1cccnc1Nc1ccc(F)cc1` gave a GI50 of 5.17 µM and a TGI greater than 100 µM.
Compound `COc1ccc(-c2nc3sc(-c4cc(OC)c(OC)c(OC)c4)nn3c2/C=C2/C(=O)Nc3ccc(F)cc32)cc1` has a GI50 of 2.53 µM and a TGI of 7.88 µM.
In the case of `CC(C)(C)CC(C)(C)c1ccc(OCCO)cc1`, the outcome is reported as “inactive”.
Compound `Nc1ccc(/C=C/c2ccc3ncccc3c2)cc1` has a GI50 greater than 100 µM and a TGI greater than 100 µM.
Work on `CCN(Cc1ccc(OC)cc1)c1ccc(CO)c(Cl)c1` yielded a GI50 of 0.0167 µM and a TGI of 0.0413 µM.
`COc1cc2cc(NCc3cccc(Cl)c3)nc(C)c2cc1OC` gave a GI50 of 4.06 µM and a TGI of 24.3 µM.
Compound `COC(=O)c1c2c(c(C)[n+]([O-])c1C)C(=O)C(NCc1ccc(OC)cc1)=CC2=O` has a GI50 of 1.27 µM and a TGI of 3.06 µM.
For `CN1C(=O)C(c2c[nH]c3ccccc23)=C(c2c[nH]c3ccccc23)C1=O`, the GI50 was 5.12 µM and the TGI was 19 µM.
For `C=CCc1cccc(C=O)c1O`, the GI50 was greater than 100 µM and the TGI was greater than 100 µM.
